One data set in a line: Biorelevant solubility. It is filed as physicochemical. The note with it: 37 °C, biorelevant media pH 6.5 (3 mM taurocholate, 0.75 mM phospholipids), mean ± SD, n = 3. On the procedure:
The media utilized in this experiment were composed of 2 mM Tris-maleate, 150 mM NaCl, and 1.06 mM CaCl2. The pH of the media was adjusted to pH 6.5. The media were supplemented with FaSSIF powder a day prior to the experiment, resulting in a composition of the final biorelevant media of 3 mM taurocholate and 0.75 mM phospholipids. This final solution will be referred to as the “biorelevant media” throughout this paper. The biorelevant media was left at room temperature at least 2 h prior to usage. […] The suspensions were placed in an oven at 37 °C and were stirred at 200 rpm. Samples were taken at time points of 3, 6, and 24 h and centrifuged at 21,380g (Mikro 200 R, Hettich GmbH, Germany) for 30 min at 37 °C. The resulting supernatant was transferred to a new sample tube and centrifuged again under identical conditions. Samples were diluted 1:10 (v/v) with the mobile phase before analysis. The samples were analyzed using an Agilent 1200 series HPLC system (Agilent Technology Inc., United States) via HPLC, as described above.

A short description of data set [1]: Equilibrium solubility studies in lipid excipients / LBFs. It is filed as physicochemical. The settings on record: 37 °C, venetoclax free base equivalents. On the procedure:
Samples were stirred at 200 rpm (Mixdrive 15 2MAG, Germany) at 37 °C. Samples were withdrawn after 24, 48, and 72 h, followed by centrifugation at 21,000g (Mikro 200R Andreas Hettich GmbH & Co. KG, Germany) for 30 min. The supernatant was extracted and centrifuged again under identical conditions. The resulting supernatant was solubilized 1:10 v/v in a mixture of acetonitrile and ethyl acetate (1:4 v/v), followed by a further 1:10 v/v dilution in acetonitrile and ethyl acetate (4:1 v/v). Samples were analyzed by HPLC as per the method above. All samples were analyzed in triplicate.

The nature of data set [2]: Saturation during in vitro testing (saturation ratio). It is filed as physicochemical. The note with it: all cases: medium- and long-chain LBFs, after dispersion and digestion. On the procedure:
The degree of saturation of drug concentrations in the aqueous phase during the in vitro lipolysis experiment was measured by comparing the measured aqueous phase concentration to the equilibrium drug solubility in samples containing dispersed and digested nondrug loaded formulations under identical conditions. Excess drug or lipophilic salt was added to 2 mL samples of the blank aqueous phase and stirred at 37 °C for 24 h. Samples were withdrawn, centrifuged, and analyzed under conditions identical to those in Section 2.2.9. […] Saturation ratios were evaluated at the end of the dispersion phase and the end of the digestion phase.

The nature of data set [3]: In vitro lipolysis (dispersion and digestion) of LBFs. It is filed as physicochemical. On the procedure: The LBFs were assayed using the in vitro lipolysis method[25] to assess the potential for formulations containing dissolved lipophilic salt to maintain the drug in a solubilized state as the formulation is dispersed and digested under simulated gastrointestinal conditions. Formulations utilized in this experiment were loaded at 80% equilibrium solubility as per Section 2.2.6, at drug doses outlined in Table 3.
The in vitro lipolysis experiments were performed using a pH stat apparatus (Metrohm AG, Herisau, Switzerland) comprising an 836 Titando, an 804 Ti Stand, a pH electrode (Metrohm), and two 800 Dosino 20 mL dosing units. The system was operated by Tiamo 2.5 software (Metrohm). The biorelevant medium described in Section 2.2.8 was used for this experiment. The pancreatin extract (8× USP) was reconstituted immediately prior to use by adding 5 mL of the biorelevant medium to 1 g of pancreatin, vortexed thoroughly, and centrifuged at 4000g for 15 min at 4 °C (Centrifuge 5702 R, Eppendorf, Germany); 4 mL of the resulting supernatant was recovered and immediately stored on ice before further usage. […] The amount of NaOH dispensed was recorded by the system and used to assess the rate and extent of digestion. […] As the formulation is a type III-A formulation, ultracentrifugation was not required as the lipids should readily disperse within the biorelevant medium.[25] […]

For data set [4] the following is noted: cited from earlier work.

Structures are written as SMILES. Values after ≈ are worked out from the molar mass of the structure shown. A value given as a limit tells only on which side of the number the result lay.

In turn, `CC1(C)CCC(CN2CCN(c3ccc(C(=O)NS(=O)(=O)c4ccc(NCC5CCOCC5)c([N+](=O)[O-])c4)c(Oc4cnc5[nH]ccc5c4)c3)CC2)=C(c2ccc(Cl)cc2)C1.CCCCCCCCCCOS(=O)(=O)O` [venetoclax decyl sulfate] gave a biorelevant solubility in “Biorelevant solubility” of 10.3 ± 0.8 µg/mL.
As to `CC1(C)CCC(CN2CCN(c3ccc(C(=O)NS(=O)(=O)c4ccc(NCC5CCOCC5)c([N+](=O)[O-])c4)c(Oc4cnc5[nH]ccc5c4)c3)CC2)=C(c2ccc(Cl)cc2)C1.CCCCC(CC)COC(=O)CC(C(=O)OCC(CC)CCCC)S(=O)(=O)O` [venetoclax docusate], in data set [1], the “apparent equilibrium solubility in long-chain LBF” value is more than 25 mg/g and the “apparent equilibrium solubility in medium-chain LBF” value was more than 50 mg/g. In “Biorelevant solubility”, this compound displayed a biorelevant solubility of 16.2 ± 1.6 µg/mL. Further, the saturation ratio in data set [2] was less than 10.3.
Take `CC1(C)CCC(CN2CCN(c3ccc(C(=O)NS(=O)(=O)c4ccc(NCC5CCOCC5)c([N+](=O)[O-])c4)c(Oc4cnc5[nH]ccc5c4)c3)CC2)=C(c2ccc(Cl)cc2)C1.CCCCCCCCCCCCS(=O)(=O)O` [venetoclax dodecanesulfonate]: in data set [1], the “apparent equilibrium solubility in long-chain LBF” value was more than 25 mg/g and the “apparent equilibrium solubility in medium-chain LBF” value is more than 50 mg/g. The biorelevant solubility in the data set “Biorelevant solubility” worked out at 9.8 ± 1.4 µg/mL.
For `CC1(C)CCC(CN2CCN(c3ccc(C(=O)NS(=O)(=O)c4ccc(NCC5CCOCC5)c([N+](=O)[O-])c4)c(Oc4cnc5[nH]ccc5c4)c3)CC2)=C(c2ccc(Cl)cc2)C1.CCCCCCCCCCCCCCCCCCOS(=O)(=O)O` [venetoclax octadecyl sulfate], the biorelevant solubility in the data set “Biorelevant solubility” was 8.4 ± 0.7 µg/mL.
Still for that read-out and setting: to `CC1(C)CCC(CN2CCN(c3ccc(C(=O)NS(=O)(=O)c4ccc(NCC5CCOCC5)c([N+](=O)[O-])c4)c(Oc4cnc5[nH]ccc5c4)c3)CC2)=C(c2ccc(Cl)cc2)C1.CCCCCCCCS(=O)(=O)O` [venetoclax octanesulfonate] belongs 7.4 ± 0.7 µg/mL.
Regarding `CC1(C)CCC(CN2CCN(c3ccc(C(=O)NS(=O)(=O)c4ccc(NCC5CCOCC5)c([N+](=O)[O-])c4)c(Oc4cnc5[nH]ccc5c4)c3)CC2)=C(c2ccc(Cl)cc2)C1.CCCCCCCCOS(=O)(=O)O` [venetoclax octyl sulfate], in the data set “Biorelevant solubility”, the biorelevant solubility came to 7.7 ± 0.6 µg/mL.
As usually defined, the solubility is the dissolved amount per volume that the medium holds. In the case of `CC1(C)CCC(CN2CCN(c3ccc(C(=O)NS(=O)(=O)c4ccc(NCC5CCOCC5)c([N+](=O)[O-])c4)c(Oc4cnc5[nH]ccc5c4)c3)CC2)=C(c2ccc(Cl)cc2)C1` [venetoclax], the concentration in solution in the data set “Biorelevant solubility” (biorelevant media (FaSSIF-supplemented Tris-maleate buffer), fassif, thermodynamic from solid) (solubility) was 5.5 ± 1 µg/mL (≈ 6.33 µM). Besides, the “concentration of venetoclax in the aqueous phase” value in data set [3] (LBFs loaded with free base, dispersion and digestion) was less than 50 µg/mL. Moreover, in data set [3] (medium- and long-chain formulations), the dose precipitated entry is “greater than 80%”. Also, the “solubility in medium- and long-chain triglycerides” value in data set [4] is less than 1000 µg/mL.

Source of the values: PMC11151202 (Molecular Pharmaceutics, 2024).
